We go through 11 molecules from patent US20240261417A1, “SOS1 DEGRADING AGENT AND PREPARATION METHOD THEREFOR AND APPLICATION THEREOF” (SHANGHAI LEADINGTAC PHARMACEUTICAL CO. LTD., priority 2021, published 2024).

This assay concerns the target T1, SOS1 protein (Homo sapiens, UniProt Q07889).
T1 sequence (Q07889 1-1333): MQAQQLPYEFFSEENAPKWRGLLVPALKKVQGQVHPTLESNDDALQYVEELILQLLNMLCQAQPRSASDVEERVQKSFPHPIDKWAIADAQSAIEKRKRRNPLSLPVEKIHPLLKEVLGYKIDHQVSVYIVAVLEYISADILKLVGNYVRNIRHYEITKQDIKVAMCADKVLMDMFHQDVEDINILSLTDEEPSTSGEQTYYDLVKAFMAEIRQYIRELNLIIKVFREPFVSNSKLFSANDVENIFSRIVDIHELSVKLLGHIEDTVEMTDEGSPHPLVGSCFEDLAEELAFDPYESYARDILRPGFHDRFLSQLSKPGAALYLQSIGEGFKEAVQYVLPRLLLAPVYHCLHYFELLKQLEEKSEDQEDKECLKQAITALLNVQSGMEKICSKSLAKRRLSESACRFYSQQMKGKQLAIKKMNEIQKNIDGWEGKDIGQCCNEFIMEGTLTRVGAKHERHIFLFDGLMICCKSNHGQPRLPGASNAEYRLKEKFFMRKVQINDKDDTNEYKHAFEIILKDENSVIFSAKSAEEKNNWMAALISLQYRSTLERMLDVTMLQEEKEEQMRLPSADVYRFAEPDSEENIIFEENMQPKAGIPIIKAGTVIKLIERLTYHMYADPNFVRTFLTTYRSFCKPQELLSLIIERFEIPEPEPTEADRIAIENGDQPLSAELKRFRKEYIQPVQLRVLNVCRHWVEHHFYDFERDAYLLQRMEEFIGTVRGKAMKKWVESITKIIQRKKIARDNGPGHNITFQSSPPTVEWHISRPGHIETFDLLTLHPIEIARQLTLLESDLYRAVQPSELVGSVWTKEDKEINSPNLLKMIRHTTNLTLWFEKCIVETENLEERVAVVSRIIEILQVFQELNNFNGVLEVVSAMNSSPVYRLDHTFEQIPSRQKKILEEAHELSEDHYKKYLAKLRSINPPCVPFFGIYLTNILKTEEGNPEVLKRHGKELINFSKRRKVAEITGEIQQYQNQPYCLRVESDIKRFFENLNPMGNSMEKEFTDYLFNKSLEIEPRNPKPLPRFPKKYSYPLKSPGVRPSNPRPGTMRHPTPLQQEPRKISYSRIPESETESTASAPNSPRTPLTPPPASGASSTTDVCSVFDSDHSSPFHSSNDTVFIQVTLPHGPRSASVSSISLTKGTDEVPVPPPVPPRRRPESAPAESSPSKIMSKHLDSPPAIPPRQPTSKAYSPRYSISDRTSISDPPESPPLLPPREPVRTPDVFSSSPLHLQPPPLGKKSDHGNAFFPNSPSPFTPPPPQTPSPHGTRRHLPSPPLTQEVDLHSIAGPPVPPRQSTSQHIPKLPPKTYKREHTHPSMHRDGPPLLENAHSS
Description: SOS1 degradation assay (Western blot), NCI-H358 cells. In kind it is cell-based. Conditions: SOS1 degradation, NCI-H358 cells, 24 h, Western blot; for DC50: read-out: NCI-H358 (G12C) DC50; for Dmax: read-out: NCI-H358 (G12C) Dmax. More on the design: The degradation of SOS1 by the compounds was investigated on KRAS G12C mutant human non-small cell lung cancer cells NCI-H358; host or cells: NCI-H358 (human cancer cell lines). The procedure, abridged: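 Cells at 5×10^5 per well were treated for 24 h at 37 °C with compound at 0.03–3000 nM final. SOS1 in lysates was measured by Western blot with chemiluminescent densitometry and normalised to the control group. DC50 and Dmax came from nonlinear fits against log concentration.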
For orientation: Immunoblotting shows a protein as a band on a membrane.

Each structure is given as a SMILES string. A value given as a limit tells only on which side of the number the result lay.

One may read the DC50 as the concentration giving 50% degradation. By Dmax is commonly meant the largest share of the target that was removed. Consider `COc1cc2nc(C)nc(N[C@H](C)c3cc(N)cc(C(F)(F)F)c3)c2cc1[C@H]1CC[C@H](C(=O)N2CCN(CC3CCC4(CC3)CCN(C(=O)c3ccc(F)c(N5CCC(=O)NC5=O)c3)CC4)CC2)CC1` [Example 24, 1-(5-(9-((4-((1R,4R)-4-(4-(((R)-1-(3-amino-5-(trifluoromethyl)phenyl)ethyl)amino)-7-methoxy-2-methylquinazolin-6-yl)cyclohexane-1-carbonyl)piperazin-1-yl)methyl)-3-azaspiro[5.5]undecane-3-carbonyl)-2-fluorophenyl)dihydropyrimidine-2,4(1H,3H)-dione], for which the DC50 was under 0.05 µM and the Dmax was in the range of 80 to 100%.
As to `COc1cc2nc(C)nc(N[C@H](C)c3cc(N)cc(C(F)(F)F)c3)c2cc1[C@H]1CC[C@H](C(=O)N(C)CC2CCC3(CC2)CCN(C(=O)c2ccc(Cl)c(N4CCC(=O)NC4=O)c2)CC3)CC1` [Example 9, (1R,4R)-4-(4-(((R)-1-(3-amino-5-(trifluoromethyl)phenyl)ethyl)amino)-7-methoxy-2-methylquinazolin-6-yl)-N-((3-(4-chloro-3-(2,4-dioxotetrahydropyrimidin-1(2H)-yl)benzoyl)-3-azaspiro[5.5]undecane-9-yl)methyl)-N-methylcyclohexane-1-carboxamide], the DC50 was in the range of 1 to 10 µM and the Dmax is under 30%.
As for `COc1ccc(C(=O)N2CCC(COCCC3CCN(C(=O)[C@H]4CC[C@H](c5cc6c(N[C@H](C)c7cc(N)cc(C(F)(F)F)c7)nc(C)nc6cn5)CC4)CC3)CC2)cc1N1CCC(=O)NC1=O` [Example 36, 1-(5-(4-((2-(1-((1R,4R)-4-(4-(((R)-1-(3-amino-5-(trifluoromethyl)phenyl)ethyl)amino)-2-methylpyrido[3,4-d]pyrimidin-6-yl)cyclohexane-1-carbonyl)piperidin-4-yl)ethoxy)methyl)piperidine-1-carbonyl)-2-methoxyphenyl)dihydropyrimidine-2,4(1H,3H)-dione], the DC50 was 0.1 to 0.5 µM and the maximal degradation (Dmax) is 50 to 80%.
The corresponding values for `Cc1nc(N[C@H](C)c2cc(N)cc(C(F)(F)F)c2)c2cc([C@H]3CC[C@H](C(=O)N4CCN(CC5CCC6(CC5)CCN(C(=O)c5ccc(Cl)c(N7CCC(=O)NC7=O)c5)CC6)CC4)CC3)ncc2n1` [Example 78, 1-(5-(9-((4-((1R,4R)-4-(4-(((R)-1-(3-amino-5-(trifluoromethyl)phenyl)ethyl)amino)-2-methylpyrido[3,4-d]pyrimidin-6-yl)cyclohexane-1-carbonyl)piperazin-1-yl)methyl)-3-azaspiro[5.5]undecane-3-carbonyl)-2-chlorophenyl)dihydropyrimidine-2,4(1H,3H)-dione] are 0.1 to 0.5 µM and 50 to 80%.
The corresponding values for `[2H]C1([2H])CC(OCC2CCN(C(=O)c3ccc(Cl)c(N4CCC(=O)NC4=O)c3)CC2)CC([2H])([2H])N1C(=O)[C@H]1CC[C@H](c2cc3c(N[C@H](C)c4cc(N)cc(C(F)(F)F)c4)nc(C)nc3cc2OC)CC1` [Example 40, 1-(5-(4-(((1-((1R,4R)-4-(4-(((R)-1-(3-amino-5-(trifluoromethyl)phenyl)ethyl)amino)-7-methoxy-2-methylquinazolin-6-yl)cyclohexane-1-carbonyl)piperidin-4-yl-2,2,6,6-d4)oxy)methyl)piperidine-1-carbonyl)-2-chlorophenyl)dihydropyrimidine-2,4(1H,3H)-dione] are 1 to 10 µM and under 30%.
As to `Cc1nc(N[C@H](C)c2cc(N)cc(C(F)(F)F)c2)c2cc(C3CCN(CC(=O)NCCC4CCC5(CC4)CCN(C(=O)c4ccc(Cl)c(N6CCC(=O)NC6=O)c4)CC5)CC3)ccc2n1` [Example 77, (R)-2-(4-(4-((1-(3-amino-5-(trifluoromethyl)phenyl)ethyl)amino)-2-methylquinazolin-6-yl)piperidin-1-yl)-N-(2-(3-(4-chloro-3-(2,4-dioxotetrahydropyrimidin-1(2H)-yl)benzoyl)-3-azaspiro[5.5]undecan-9-yl)ethyl)acetamide], the DC50 was 0.5 to 1 µM and the maximal degradation (Dmax) fell in the range of 80 to 100%.
The corresponding values for `COc1cc2nc(C)nc(N[C@H](C)c3cc(N)cc(C(F)(F)F)c3)c2cc1O[C@H]1CC[C@H](C(=O)N2CCN(CC3CCC4(CC3)CCN(C(=O)c3ccc(Cl)c(N5CCC(=O)NC5=O)c3)CC4)CC2)CC1` [Example 31, 1-(5-(9-((4-((1R,4R)-4-((4-(((R)-1-(3-amino-5-(trifluoromethyl)phenyl)ethyl)amino)-7-methoxy-2-methylquinazolin-6-yl)oxo)cyclohexane-1-carbonyl)piperazin-1-yl)methyl)-3-azaspiro[5.5]undecane-3-carbonyl)-2-chlorophenyl)dihydropyrimidine-2,4(1H,3H)-dione] are 1 to 10 µM and under 30%.
Take `COc1cc2nc(C)nc(N[C@@H](C)c3cc(N)cc(C(F)(F)F)c3)c2cc1[C@H]1CC[C@@H](C(=O)N2CCN(CCC3CCC4(CC3)CCN(C(=O)c3ccc(Cl)c(N5CCC(=O)NC5=O)c3)CC4)CC2)CC1` [Example 34, 1-(5-(9-(2-(4-((1S,4S)-4-(4-(((R)-1-(3-amino-5-(trifluoromethyl)phenyl)ethyl)amino)-7-methoxy-2-methylquinazolin-6-yl)cyclohexane-1-carbonyl)piperazin-1-yl)ethyl)-3-azaspiro[5.5]undecane-3-carbonyl)-2-chlorophenyl)dihydropyrimidine-2,4(1H,3H)-dione]: the “NCI-H358 (G12C) Dmax” value was “C (when 30≤Dmax (%)<50, the level was C)”.
For the molecule `COc1cc2nc(C)nc(N[C@H](C)c3cc(N)cc(C(F)(F)F)c3)c2cc1[C@H]1CC[C@H](C(=O)N2CCN(CCCCC3CCN(C(=O)c4ccc(Cl)c(N5CCC(=O)NC5=O)c4)CC3)CC2)CC1` [Example 29, 1-(5-(4-(4-(4-((1R,4R)-4-(4-(((R)-1-(3-amino-5-(trifluoromethyl)phenyl)ethyl)amino)-7-methoxy-2-methylquinazolin-6-yl)cyclohexane-1-carbonyl)piperazin-1-yl)butyl)piperidine-1-carbonyl)-2-chlorophenyl)dihydropyrimidine-2,4(1H,3H)-dione], the DC50 was under 0.05 µM and the Dmax was 80 to 100%.
Consider `COc1cc2nc(C)nc(N[C@H](C)c3cc(N)cc(C(F)(F)F)c3)c2cc1[C@H]1CC[C@H](C(=O)N2CCC(CC3CCC4(CC3)CCN(C(=O)c3ccc(Cl)c(N5CCC(=O)NC5=O)c3)CC4)CC2)CC1` [Example 8, 1-(5-(9-((1-((1R,4R)-4-(4-(((R)-1-(3-amino-5-(trifluoromethyl)phenyl)ethyl)amino)-7-methoxy-2-methylquinazolin-6-yl)cyclohexane-1-carbonyl)piperidin-4-yl)methyl)-3-azaspiro[5.5]undecane-3-carbonyl)-2-chlorophenyl)dihydropyrimidine-2,4(1H,3H)-dione], for which the 50% degradation concentration (DC50) lay within 0.05 to 0.1 µM and the Dmax fell in the range of 80 to 100%.
The corresponding values for `COc1cc2nc(C)nc(N[C@H](C)c3cc(N)cc(C(F)(F)F)c3)c2cc1C1=CCC(C(=O)N2CCC(CCOCC3CCN(C(=O)c4ccc(OC)c(N5CCC(=O)NC5=O)c4)CC3)CC2)CC1` (stereo partly drawn) [Example 32, 1-(5-(4-((2-(1-(4-(4-(((R)-1-(3-amino-5-(trifluoromethyl)phenyl)ethyl)amino)-7-methoxy-2-methylquinazolin-6-yl)cyclohex-3-ene-1-carbonyl)piperidin-4-yl)ethoxy)methyl)piperidine-1-carbonyl)-2-methoxyphenyl)dihydropyrimidine-2,4(1H,3H)-dione] are under 0.05 µM and 80 to 100%.
